Here are results for 17 molecules from ChEMBL document CHEMBL1909046, “DrugMatrix in vitro pharmacology data”.

Usually IC50 stands for the concentration needed to halve the response being measured. One may read the Ki as a measure of affinity in units of concentration, obtained from inhibition or displacement.

Experiment [1] concerns the target T1, Receptor-type tyrosine-protein phosphatase C (Homo sapiens, UniProt P08575).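 Also: inhibition of CD45 enzyme activity measured using DiFMUP as substrate; in other assays of this panel Not Active means under 50% inhibition at 10 µM.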
T1 sequence (P08575 whole entry): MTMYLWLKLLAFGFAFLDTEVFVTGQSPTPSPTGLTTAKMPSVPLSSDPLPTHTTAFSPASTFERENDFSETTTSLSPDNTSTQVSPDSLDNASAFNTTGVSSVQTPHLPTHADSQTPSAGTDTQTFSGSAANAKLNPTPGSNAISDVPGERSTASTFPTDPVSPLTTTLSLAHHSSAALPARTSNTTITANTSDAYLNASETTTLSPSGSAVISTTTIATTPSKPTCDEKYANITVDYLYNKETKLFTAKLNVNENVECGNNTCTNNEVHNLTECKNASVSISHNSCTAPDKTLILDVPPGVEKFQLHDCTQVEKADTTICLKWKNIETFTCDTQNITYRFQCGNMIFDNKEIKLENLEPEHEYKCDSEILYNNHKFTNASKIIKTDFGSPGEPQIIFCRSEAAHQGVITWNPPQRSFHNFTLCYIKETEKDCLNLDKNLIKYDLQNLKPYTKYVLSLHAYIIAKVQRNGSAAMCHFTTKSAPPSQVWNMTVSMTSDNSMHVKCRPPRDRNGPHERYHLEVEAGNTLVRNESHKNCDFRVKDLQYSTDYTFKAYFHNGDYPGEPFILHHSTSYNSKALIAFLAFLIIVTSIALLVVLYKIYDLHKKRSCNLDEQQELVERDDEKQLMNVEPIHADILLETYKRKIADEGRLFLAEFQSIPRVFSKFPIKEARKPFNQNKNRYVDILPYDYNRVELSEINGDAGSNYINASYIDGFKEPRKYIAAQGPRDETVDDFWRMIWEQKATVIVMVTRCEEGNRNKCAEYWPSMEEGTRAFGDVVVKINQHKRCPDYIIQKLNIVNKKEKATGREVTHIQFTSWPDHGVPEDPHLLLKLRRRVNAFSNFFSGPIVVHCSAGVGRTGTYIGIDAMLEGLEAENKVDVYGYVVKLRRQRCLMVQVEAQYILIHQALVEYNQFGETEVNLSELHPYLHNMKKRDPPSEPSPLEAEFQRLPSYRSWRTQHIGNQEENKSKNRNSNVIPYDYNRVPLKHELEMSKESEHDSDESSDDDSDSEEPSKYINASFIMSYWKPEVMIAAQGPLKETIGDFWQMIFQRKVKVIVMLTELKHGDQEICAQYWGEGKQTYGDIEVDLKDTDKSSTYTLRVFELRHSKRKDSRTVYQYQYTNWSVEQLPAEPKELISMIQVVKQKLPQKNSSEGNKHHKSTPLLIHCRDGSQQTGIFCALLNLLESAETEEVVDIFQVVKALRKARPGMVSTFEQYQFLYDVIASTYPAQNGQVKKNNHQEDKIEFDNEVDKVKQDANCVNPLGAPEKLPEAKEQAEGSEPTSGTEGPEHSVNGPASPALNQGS
More on the design: species or system Escherichia coli.

Experiment [2] concerns the target T2, Muscarinic acetylcholine receptor M2 (Homo sapiens, UniProt P08172). Also: in other assays of this panel Not Active means under 50% inhibition at 10 µM.
T2 sequence (P08172 whole entry): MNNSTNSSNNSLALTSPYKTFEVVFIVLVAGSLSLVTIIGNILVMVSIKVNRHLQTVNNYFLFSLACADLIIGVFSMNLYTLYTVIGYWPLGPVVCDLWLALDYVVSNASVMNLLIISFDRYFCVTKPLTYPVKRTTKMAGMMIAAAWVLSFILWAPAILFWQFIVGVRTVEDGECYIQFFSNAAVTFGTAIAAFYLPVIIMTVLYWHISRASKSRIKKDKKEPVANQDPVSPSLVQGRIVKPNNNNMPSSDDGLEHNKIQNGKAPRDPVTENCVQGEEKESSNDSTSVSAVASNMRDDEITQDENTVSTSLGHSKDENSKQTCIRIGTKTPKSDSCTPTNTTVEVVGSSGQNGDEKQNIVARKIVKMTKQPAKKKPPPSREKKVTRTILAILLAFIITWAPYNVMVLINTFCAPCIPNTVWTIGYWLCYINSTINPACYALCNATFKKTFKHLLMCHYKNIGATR
The format is cell membranes, CHO-K1, Membrane. As to conditions: cho-k1.

For experiment [3], the target named is Beta-1 adrenergic receptor (Homo sapiens, UniProt P08588). The experiment is described as follows: DRUGMATRIX: Adrenergic beta1 radioligand binding (ligand: [125I] Cyanopindolol). The format is cell membranes, CHO-K1, Membrane. As to conditions: cho-k1; Not Active = under 50% inhibition at 10 µM.
The target of experiment [4] is C-C chemokine receptor type 2 (Homo sapiens, UniProt P41597). The format is cell membranes, CHO-K1, Membrane. Also: in other assays of this panel Not Active means under 50% inhibition at 10 µM.
Experiment [5] has as its target Platelet-activating factor receptor (Homo sapiens, UniProt P25105). The format is tissue-based. Also: in other assays of this panel Not Active means under 50% inhibition at 10 µM.
The target of the next experiment is Nitric oxide synthase 1 (Rattus norvegicus, UniProt P29476). It counts as tissue-based, Cerebellum. Also: in other assays of this panel Not Active means under 50% inhibition at 10 µM.
Experiment [6] has as its target T3, 5-hydroxytryptamine receptor 1A (Rattus norvegicus, UniProt P19327). Also: in other assays of this panel Not Active means under 50% inhibition at 10 µM.
T3 sequence (P19327 whole entry): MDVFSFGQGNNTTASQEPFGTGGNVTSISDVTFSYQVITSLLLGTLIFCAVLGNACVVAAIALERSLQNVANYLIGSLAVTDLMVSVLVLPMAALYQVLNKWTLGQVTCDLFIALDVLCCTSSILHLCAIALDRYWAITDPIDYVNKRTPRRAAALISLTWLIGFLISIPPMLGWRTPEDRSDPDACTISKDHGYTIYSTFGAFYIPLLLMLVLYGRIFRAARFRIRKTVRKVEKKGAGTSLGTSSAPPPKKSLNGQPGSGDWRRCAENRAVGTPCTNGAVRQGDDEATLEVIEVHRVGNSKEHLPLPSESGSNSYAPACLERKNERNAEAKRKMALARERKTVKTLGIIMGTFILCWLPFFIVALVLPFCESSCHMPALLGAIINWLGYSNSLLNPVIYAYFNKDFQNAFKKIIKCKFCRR
It counts as cell membranes, CHO-K1, Membrane.

Sequence of Platelet-activating factor receptor (P25105 whole entry): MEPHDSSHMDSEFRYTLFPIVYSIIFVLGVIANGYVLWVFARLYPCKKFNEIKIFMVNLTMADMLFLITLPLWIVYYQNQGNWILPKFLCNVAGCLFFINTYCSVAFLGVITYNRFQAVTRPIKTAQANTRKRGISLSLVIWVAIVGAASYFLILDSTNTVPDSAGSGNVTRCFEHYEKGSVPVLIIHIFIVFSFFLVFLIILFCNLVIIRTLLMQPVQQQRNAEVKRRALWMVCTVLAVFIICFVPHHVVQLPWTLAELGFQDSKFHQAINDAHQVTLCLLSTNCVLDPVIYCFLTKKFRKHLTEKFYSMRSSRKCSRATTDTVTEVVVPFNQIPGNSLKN
Sequence of Nitric oxide synthase 1 (P29476 whole entry): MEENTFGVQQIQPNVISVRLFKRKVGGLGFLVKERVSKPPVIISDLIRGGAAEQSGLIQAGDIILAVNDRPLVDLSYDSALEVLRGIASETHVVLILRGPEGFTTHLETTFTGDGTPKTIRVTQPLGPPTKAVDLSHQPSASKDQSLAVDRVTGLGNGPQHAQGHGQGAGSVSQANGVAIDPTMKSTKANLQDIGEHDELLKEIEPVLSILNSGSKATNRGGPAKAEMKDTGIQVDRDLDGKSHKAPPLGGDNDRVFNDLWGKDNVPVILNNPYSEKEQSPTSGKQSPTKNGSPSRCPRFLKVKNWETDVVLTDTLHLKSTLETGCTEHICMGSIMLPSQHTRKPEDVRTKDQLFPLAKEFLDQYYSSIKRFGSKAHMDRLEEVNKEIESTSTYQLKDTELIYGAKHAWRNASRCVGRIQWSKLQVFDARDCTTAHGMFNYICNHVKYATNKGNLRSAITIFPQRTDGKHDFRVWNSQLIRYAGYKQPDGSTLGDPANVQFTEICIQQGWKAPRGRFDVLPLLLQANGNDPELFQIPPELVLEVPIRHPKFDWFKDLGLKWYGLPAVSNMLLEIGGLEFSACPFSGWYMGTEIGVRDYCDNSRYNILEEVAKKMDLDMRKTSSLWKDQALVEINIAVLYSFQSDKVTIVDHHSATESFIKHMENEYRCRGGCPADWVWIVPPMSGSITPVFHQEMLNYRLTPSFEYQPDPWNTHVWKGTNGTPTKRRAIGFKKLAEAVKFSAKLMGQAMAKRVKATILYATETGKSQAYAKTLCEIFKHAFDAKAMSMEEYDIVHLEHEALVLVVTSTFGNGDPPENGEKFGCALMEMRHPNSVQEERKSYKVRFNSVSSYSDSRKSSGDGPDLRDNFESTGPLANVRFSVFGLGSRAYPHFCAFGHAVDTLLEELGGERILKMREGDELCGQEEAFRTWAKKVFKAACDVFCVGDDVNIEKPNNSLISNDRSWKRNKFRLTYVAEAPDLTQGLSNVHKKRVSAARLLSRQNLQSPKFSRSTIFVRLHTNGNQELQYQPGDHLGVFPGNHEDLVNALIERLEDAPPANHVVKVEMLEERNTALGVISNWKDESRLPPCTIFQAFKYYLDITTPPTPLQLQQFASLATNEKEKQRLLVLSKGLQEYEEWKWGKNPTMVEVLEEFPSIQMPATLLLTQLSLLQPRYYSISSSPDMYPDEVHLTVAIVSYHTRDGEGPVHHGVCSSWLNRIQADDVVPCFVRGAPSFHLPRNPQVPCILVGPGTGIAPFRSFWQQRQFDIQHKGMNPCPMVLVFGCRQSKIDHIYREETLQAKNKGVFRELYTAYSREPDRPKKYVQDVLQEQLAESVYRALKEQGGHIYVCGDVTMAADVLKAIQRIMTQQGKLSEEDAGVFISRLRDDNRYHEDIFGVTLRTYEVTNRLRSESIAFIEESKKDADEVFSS
Sequence of Beta-1 adrenergic receptor (P08588 whole entry): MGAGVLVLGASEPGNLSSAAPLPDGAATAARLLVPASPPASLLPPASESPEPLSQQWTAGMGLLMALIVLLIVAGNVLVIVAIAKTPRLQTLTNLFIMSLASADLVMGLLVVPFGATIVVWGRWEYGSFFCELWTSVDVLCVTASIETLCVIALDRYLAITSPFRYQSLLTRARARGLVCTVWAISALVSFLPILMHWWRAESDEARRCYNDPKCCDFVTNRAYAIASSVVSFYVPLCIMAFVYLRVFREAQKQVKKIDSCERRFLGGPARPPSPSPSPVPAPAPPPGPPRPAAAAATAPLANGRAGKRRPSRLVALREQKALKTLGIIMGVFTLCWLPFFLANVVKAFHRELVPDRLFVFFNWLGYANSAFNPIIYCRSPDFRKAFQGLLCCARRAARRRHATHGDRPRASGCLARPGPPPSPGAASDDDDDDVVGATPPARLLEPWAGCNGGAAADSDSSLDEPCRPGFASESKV
Sequence of C-C chemokine receptor type 2 (P41597 whole entry): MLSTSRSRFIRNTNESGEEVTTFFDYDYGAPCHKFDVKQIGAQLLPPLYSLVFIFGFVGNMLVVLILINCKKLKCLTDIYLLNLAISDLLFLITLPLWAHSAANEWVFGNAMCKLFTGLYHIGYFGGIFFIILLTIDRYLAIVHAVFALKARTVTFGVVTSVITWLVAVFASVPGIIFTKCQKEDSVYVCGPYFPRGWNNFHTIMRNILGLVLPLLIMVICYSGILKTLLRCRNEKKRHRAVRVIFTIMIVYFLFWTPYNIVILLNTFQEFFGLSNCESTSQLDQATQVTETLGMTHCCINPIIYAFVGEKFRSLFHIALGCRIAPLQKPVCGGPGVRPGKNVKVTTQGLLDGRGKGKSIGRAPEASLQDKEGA

In the case of `Nc1ccc(Cc2ccc(N)cc2)cc1`, the half-inhibitory concentration (IC50) result (in experiment [1]; in experiment [2]; in experiment [3]; in experiment [4] (cho-k1); in experiment [5]; on Nitric oxide synthase 1) was “Not Active” each time. Further, the IC50 result in experiment [6] (cho-k1) is recorded as “Not Active”.

Take `CC[C@H]1OC(=O)[C@H](C)[C@@H](O[C@H]2C[C@@](C)(OC)[C@@H](O)[C@H](C)O2)[C@H](C)[C@@H](O[C@@H]2O[C@H](C)C[C@H](N(C)C)[C@H]2O)[C@](C)(O)C[C@@H](C)C(=O)[C@H](C)[C@@H](O)[C@]1(C)O` [ERYTHROMYCIN]: the concentration for half-maximal inhibition (IC50) entry (in experiment [1]; in experiment [2]; in experiment [3]; in experiment [4] (cho-k1); in experiment [5]; on Nitric oxide synthase 1) was “Not Active” throughout. Further, the 50% inhibitory concentration (IC50) entry in experiment [6] (cho-k1) is on record as “Not Active”.

Turning to `C[N+](C)(C)CCOP(=O)([O-])OC[C@H](O)CO`, the concentration for half-maximal inhibition (IC50) entry (in experiment [1]; in experiment [2]; in experiment [3]; in experiment [4] (cho-k1); in experiment [5]; against Nitric oxide synthase 1) was “Not Active” each time. Further, the IC50 result in experiment [6] (cho-k1) is “Not Active”.

Turning to `Clc1cc(Cl)c(OCC#CI)cc1Cl` [HALOPROGIN], the IC50 entry (in experiment [1]; in experiment [2]; in experiment [3]; in experiment [4] (cho-k1); in experiment [5]; against Nitric oxide synthase 1) was “Not Active” each time. Also, in experiment [6] (cho-k1), the IC50 result is given as “Not Active”.

As for `Cc1cc(C(C)(C)C)c(O)c(C)c1CC1=NCCN1` [OXYMETAZOLINE], the IC50 entry (in experiment [1]; in experiment [2]; in experiment [3]; in experiment [4] (cho-k1); in experiment [5]; against Nitric oxide synthase 1) was “Not Active” in each case. Also, in experiment [6] (read-out: IC50), the IC50 was 5.61 nM. Also, the Ki in experiment [6] (read-out: Ki) came to 3.21 nM.

For the molecule `C[N+](C)(C)CCOC(N)=O.[Cl-]` [CARBACHOL], the IC50 result (in experiment [1]; in experiment [2]; in experiment [3]; in experiment [4] (cho-k1); in experiment [5]; against Nitric oxide synthase 1) was “Not Active” throughout. The IC50 entry in experiment [6] (cho-k1) was “Not Active”.

Regarding `O=C1c2ccccc2C(=O)C1c1ccccc1` [PHENINDIONE], the IC50 entry (in experiment [1]; in experiment [2]; in experiment [3]; in experiment [4] (cho-k1); in experiment [5]; on Nitric oxide synthase 1) was “Not Active” each time. For the same molecule, in experiment [6] (cho-k1), the half-maximal inhibitory concentration (IC50) entry is “Not Active”.

As to `NC(N)=Nc1nc(CSCCC(N)=NS(N)(=O)=O)cs1` [FAMOTIDINE], the IC50 result (in experiment [1]; in experiment [2]; in experiment [3]; in experiment [4] (cho-k1); in experiment [5]; on Nitric oxide synthase 1) was “Not Active” in each case. In experiment [6] (cho-k1), the IC50 entry is given as “Not Active”.

As to `Cc1ccnc2c1NC(=O)c1cccnc1N2C1CC1` [NEVIRAPINE], the half-inhibitory concentration (IC50) entry (in experiment [1]; in experiment [2]; in experiment [3]; in experiment [4] (cho-k1); in experiment [5]; at Nitric oxide synthase 1) was “Not Active” in each case. For the same molecule, the concentration for half-maximal inhibition (IC50) entry in experiment [6] (cho-k1) is listed as “Not Active”.

`CO[C@H]1O[C@@H]2O[C@@]3(C)CC[C@H]4[C@H](C)CC[C@@H]([C@H]1C)[C@@]24OO3`: the half-inhibitory concentration (IC50) result (in experiment [1]; in experiment [2]; in experiment [3]; in experiment [4] (cho-k1); in experiment [5]; at Nitric oxide synthase 1) was “Not Active” each time. Besides, the IC50 entry in experiment [6] (cho-k1) was “Not Active”.

As to `CN(CCOc1ccc(C[C@H](Nc2ccccc2C(=O)c2ccccc2)C(=O)O)cc1)c1ccccn1`, the IC50 entry (in experiment [1]; in experiment [2]; in experiment [3]; in experiment [4] (cho-k1); in experiment [5]; against Nitric oxide synthase 1) was “Not Active” throughout. Also, the IC50 result in experiment [6] (cho-k1) is recorded as “Not Active”.

For `c1ccc2sc(SSc3nc4ccccc4s3)nc2c1` [BENZOTHIAZYL DISULFIDE], the IC50 result was “Not Active” in experiment [1]; “Not Active” in experiment [2]; “Not Active” in experiment [3]; 2410 nM in experiment [4] (read-out: IC50); “Not Active” in experiment [5]; “Not Active” at Nitric oxide synthase 1. For the same molecule, the IC50 in experiment [6] (read-out: IC50) worked out at 747 nM. Besides, the Ki in experiment [4] (read-out: Ki) came to 929 nM; in experiment [6] (read-out: Ki), 427 nM.

With `NS(=O)(=O)c1cc(C(=O)O)c(NCc2ccco2)cc1Cl` [FUROSEMIDE], the IC50 entry (in experiment [1]; in experiment [2]; in experiment [3]; in experiment [4] (cho-k1); in experiment [5]; against Nitric oxide synthase 1) was “Not Active” in each case. For the same molecule, in experiment [6] (cho-k1), the 50% inhibitory concentration (IC50) entry was “Not Active”.

Regarding `COc1ccc(C[C@H](N)C(=O)N[C@H]2[C@@H](O)[C@H](n3cnc4c(N(C)C)ncnc43)O[C@@H]2CO)cc1` [PUROMYCIN], the IC50 entry (in experiment [1]; in experiment [2]; in experiment [3]; in experiment [4] (cho-k1); in experiment [5]; against Nitric oxide synthase 1) was “Not Active” in each case. For the same molecule, in experiment [6] (cho-k1), the half-inhibitory concentration (IC50) result is recorded as “Not Active”.

In the case of `O=c1[nH]c2ccccc2c2ccccc12`, the IC50 result (in experiment [1]; in experiment [2]; in experiment [3]; in experiment [4] (cho-k1); in experiment [5]; against Nitric oxide synthase 1) was “Not Active” in each case. In addition, in experiment [6] (cho-k1), the half-maximal inhibitory concentration (IC50) entry is recorded as “Not Active”.

COPPER(II) OXIDE: the IC50 entry (in experiment [1]; in experiment [2]; in experiment [3]; in experiment [4] (cho-k1); in experiment [5]; against Nitric oxide synthase 1) was “Not Active” each time. In experiment [6] (cho-k1), the IC50 entry is reported as “Not Active”. The Ki entry (in experiment [1]; in experiment [2]; in experiment [3]; in experiment [4] (cho-k1); in experiment [5]; on Nitric oxide synthase 1) was “Not Active” each time. The inhibition constant Ki result in experiment [6] (cho-k1) is given as “Not Active”.

For `CC12CCC(CC1)C(C)(C)O2` [EUCALYPTOL], the IC50 result (in experiment [1]; in experiment [2]; in experiment [3]; in experiment [4] (cho-k1); in experiment [5]; at Nitric oxide synthase 1) was “Not Active” in each case. Besides, the IC50 entry in experiment [6] (cho-k1) was “Not Active”.
